From US6737383B1, “Herbicidal oxadiazolidines” (priority 1999, dated 2004)

Tests used:
giant foxtail = experiment: Test B pre/postemergence giant foxtail; format: in vivo, Setaria faberii; conditions: for Giant foxtail plant response rating: scale of 0 to 10 where 0 is no effect and 10 is complete control
Procedure, shortened: (§1)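 Test chemicals in a non-phytotoxic solvent mixture with surfactant were sprayed preemergence onto planted seeds and postemergence onto plants 2 to 18 cm tall (1- to 4-leaf stage). After twelve to sixteen days in a greenhouse, injury was visually rated against untreated controls from 0 (no effect) to 10 (complete control).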

purple nutsedge = experiment: Test B pre/postemergence purple nutsedge; format: in vivo, Cyperus rotundus; conditions: for Nutsedge plant response rating: scale of 0 to 10 where 0 is no effect and 10 is complete control
Procedure, shortened: as §1

sugar beet = experiment: Test B pre/postemergence sugar beet; format: in vivo, Beta vulgaris; conditions: for Sugarbeets plant response rating: scale of 0 to 10 where 0 is no effect and 10 is complete control
Procedure, shortened: as §1

wild oat = experiment: Test B pre/postemergence wild oat; format: in vivo, Avena fatua; conditions: for Wild oats plant response rating: scale of 0 to 10 where 0 is no effect and 10 is complete control
Procedure, shortened: as §1

pigweed = experiment: Test B pre/postemergence pigweed; format: in vivo, Amaranthus retroflexus; conditions: for Redroot pigweed plant response rating: scale of 0 to 10 where 0 is no effect and 10 is complete control
Procedure, shortened: as §1

soybean = experiment: Test B pre/postemergence soybean; format: in vivo, Glycine max; conditions: for Soybean plant response rating: scale of 0 to 10 where 0 is no effect and 10 is complete control
Procedure, shortened: as §1

corn = experiment: Test B pre/postemergence corn; format: in vivo, Zea mays; conditions: for Corn plant response rating: scale of 0 to 10 where 0 is no effect and 10 is complete control
Procedure, shortened: as §1

rice = experiment: Test B flood test rice; format: in vivo, Oryza sativa; conditions: Pre-emergence
Procedure, shortened: (§2)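 Plants were grown to the 2-leaf stage before treatment with test chemical, then held in a greenhouse for twelve to sixteen days. Injury was visually rated against untreated controls on a 0–10 scale, where 0 is no effect and 10 is complete control.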

smallflower flatsedge = experiment: Test B flood test smallflower flatsedge; format: in vivo, Cyperus difformis; conditions: Pre-emergence
Procedure, shortened: as §2

surinam grass = experiment: Test B pre/postemergence surinam grass; format: in vivo, Brachiaria decumbens
Procedure, shortened: as §1

rape = experiment: Test B pre/postemergence rape; format: in vivo, Brassica napus; conditions: for Rape plant response rating: scale of 0 to 10 where 0 is no effect and 10 is complete control
Procedure, shortened: as §1

duck salad = experiment: Test B flood test duck salad; format: in vivo, Heteranthera limosa; conditions: Pre-emergence
Procedure, shortened: as §2

velvetleaf = experiment: Test B pre/postemergence velvetleaf; format: in vivo, Abutilon theophrasti; conditions: for Velvetleaf plant response rating: scale of 0 to 10 where 0 is no effect and 10 is complete control
Procedure, shortened: as §1

bedstraw = experiment: Test B pre/postemergence bedstraw; format: in vivo, Galium aparine
Procedure, shortened: as §1

cocklebur = experiment: Test B pre/postemergence cocklebur; format: in vivo, Xanthium strumarium; conditions: for Cocklebur plant response rating: scale of 0 to 10 where 0 is no effect and 10 is complete control
Procedure, shortened: as §1

wheat = experiment: Test B pre/postemergence wheat; format: in vivo, Triticum aestivum; conditions: for Wheat plant response rating: scale of 0 to 10 where 0 is no effect and 10 is complete control
Procedure, shortened: as §1

[1] = Postemergence, Rate 125 g/ha, scale 0 to 10, 0 is no effect, 10 is complete control
[2] = Preemergence, Rate 62 g/ha, scale 0 to 10 (0 no effect, 10 complete control)
[3] = Rate 500 g/ha, Postemergence, scale 0 to 10, 0 no effect, 10 complete control
[4] = Rate 62 g/ha, flood test species, visual evaluation after twelve to sixteen days
[5] = Rate 125 g/ha, flood test species, scale 0 to 10 where 0 is no effect and 10 is complete control
[6] = Rate 250 g/ha, flood-test species, scale 0 to 10, 0 is no effect, 10 is complete control
[7] = Rate 500 g/ha, flood test species, scale 0 to 10 (0 no effect, 10 complete control)
[8] = Preemergence, Rate 500 g/ha, scale of 0 to 10 where 0 is no effect and 10 is complete control
[9] = Rate 62 g/ha, Postemergence, scale of 0 to 10 where 0 is no effect and 10 is complete control
[10] = Rate 250 g/ha, Postemergence, scale of 0 to 10 where 0 is no effect and 10 is complete control

SMILES: CC(C)N(C(=O)n1oc(=O)n(C2CCCCCC2)c1=O)c1ccccc1 [Compound 341]
- Plant response rating, Giant foxtail (giant foxtail; [1]): 0
- Plant response rating, Giant foxtail (giant foxtail; [2]): 9
- Giant foxtail plant response rating (0 to 10 scale) (giant foxtail; Preemergence, Rate 125 g/ha): 9
- Giant foxtail plant response rating (giant foxtail; Preemergence, Rate 250 g/ha): 10
- Giant foxtail plant response rating (giant foxtail; Preemergence, Rate 500 g/ha): 10
- Giant foxtail plant response rating (giant foxtail; Rate 62 g/ha, Postemergence): 0
- Plant response rating, Giant foxtail (giant foxtail; [3]): 2
- Plant response rating, Nutsedge (purple nutsedge; [1]): 0
- Plant response rating, Nutsedge (purple nutsedge; [2]): 0
- Nutsedge plant response rating (0 to 10 scale) (purple nutsedge; Preemergence, Rate 125 g/ha): 0
- Nutsedge plant response rating (purple nutsedge; Preemergence, Rate 250 g/ha): 0
- Nutsedge plant response rating (purple nutsedge; Preemergence, Rate 500 g/ha): 0
- Nutsedge plant response rating (purple nutsedge; Rate 62 g/ha, Postemergence): 0
- Plant response rating, Nutsedge (purple nutsedge; [3]): 0
- Plant response rating, Sugarbeets (sugar beet; [1]): 0
- Plant response rating, Sugarbeets (sugar beet; [2]): 0
- Sugarbeets plant response rating (0 to 10 scale) (sugar beet; Preemergence, Rate 125 g/ha): 0
- Sugarbeets plant response rating (sugar beet; Preemergence, Rate 250 g/ha): 0
- Sugarbeets plant response rating (sugar beet; Preemergence, Rate 500 g/ha): 0
- Sugarbeets plant response rating (sugar beet; Rate 62 g/ha, Postemergence): 0
- Plant response rating, Sugarbeets (sugar beet; [3]): 0
- Plant response rating, Wild oats (wild oat; [1]): 0
- Plant response rating, Wild oats (wild oat; [2]): 0
- Wild oats plant response rating (0 to 10 scale) (wild oat; Preemergence, Rate 125 g/ha): 0
- Wild oats plant response rating (wild oat; Preemergence, Rate 250 g/ha): 0
- Wild oats plant response rating (wild oat; Preemergence, Rate 500 g/ha): 2
- Wild oats plant response rating (wild oat; Rate 62 g/ha, Postemergence): 0
- Plant response rating, Wild oats (wild oat; [3]): 3
- Plant response rating, Redroot pigweed (pigweed; [1]): 0
- Plant response rating, Redroot pigweed (pigweed; [2]): 0
- Redroot pigweed plant response rating (0 to 10 scale) (pigweed; Preemergence, Rate 125 g/ha): 0
- Redroot pigweed plant response rating (pigweed; Preemergence, Rate 250 g/ha): 0
- Redroot pigweed plant response rating (pigweed; Preemergence, Rate 500 g/ha): 8
- Redroot pigweed plant response rating (pigweed; Rate 62 g/ha, Postemergence): 0
- Plant response rating, Redroot pigweed (pigweed; [3]): 6
- Plant response rating, Soybean (soybean; [1]): 2
- Plant response rating, Soybean (soybean; [2]): 0
- Soybean plant response rating (0 to 10 scale) (soybean; Preemergence, Rate 125 g/ha): 0
- Soybean plant response rating (soybean; Preemergence, Rate 250 g/ha): 0
- Soybean plant response rating (soybean; Preemergence, Rate 500 g/ha): 0
- Soybean plant response rating (soybean; Rate 62 g/ha, Postemergence): 1
- Plant response rating, Soybean (soybean; [3]): 3
- Plant response rating, Corn (corn; [1]): 0
- Plant response rating, Corn (corn; [2]): 0
- Corn plant response rating (0 to 10 scale) (corn; Preemergence, Rate 125 g/ha): 0
- Corn plant response rating (corn; Preemergence, Rate 250 g/ha): 0
- Corn plant response rating (corn; Preemergence, Rate 500 g/ha): 0
- Corn plant response rating (corn; Rate 62 g/ha, Postemergence): 0
- Plant response rating, Corn (corn; [3]): 0
- Plant response rating, Rice (0 to 10 scale, 0 is no effect, 10 is complete control) (rice; [4]): 0
- Rice plant response rating (rice; [5]): 0
- Rice plant response rating (rice; [6]): 0
- Rice plant response rating (rice; [7]): 2
- Plant response rating, S. Flatsedge (0 to 10 scale, 0 is no effect, 10 is complete control) (smallflower flatsedge; [4]): 1
- S. Flatsedge plant response rating (smallflower flatsedge; [5]): 4
- S. Flatsedge plant response rating (smallflower flatsedge; [6]): 9
- S. Flatsedge plant response rating (smallflower flatsedge; [7]): 9
- Plant response rating, B. signalgrass (surinam grass; [1]): 0
- Plant response rating, B. signalgrass (surinam grass; [2]): 0
- B. signalgrass plant response rating (0 to 10 scale, 0 is no effect, 10 is complete control) (surinam grass; Preemergence, Rate 125 g/ha): 0
- B. signalgrass plant response rating (surinam grass; Preemergence, Rate 250 g/ha, scale of 0 to 10 where 0 is no effect and 10 is complete control): 0
- B. signalgrass plant response rating (surinam grass; [8]): 0
- B. signalgrass plant response rating (surinam grass; [9]): 0
- Plant response rating, B. signalgrass (surinam grass; [10]): 0
- Plant response rating, B. signalgrass (surinam grass; [3]): 2
- Plant response rating, Rape (rape; [1]): 0
- Plant response rating, Rape (rape; [2]): 0
- Rape plant response rating (0 to 10 scale) (rape; Preemergence, Rate 125 g/ha): 0
- Rape plant response rating (rape; Preemergence, Rate 250 g/ha): 0
- Rape plant response rating (rape; Preemergence, Rate 500 g/ha): 0
- Rape plant response rating (rape; Rate 62 g/ha, Postemergence): 0
- Plant response rating, Rape (rape; [3]): 2
- Plant response rating, Ducksalad (0 to 10 scale, 0 is no effect, 10 is complete control) (duck salad; [4]): 0
- Ducksalad plant response rating (duck salad; [5]): 0
- Ducksalad plant response rating (duck salad; [6]): 0
- Ducksalad plant response rating (duck salad; [7]): 3
- Plant response rating, Velvetleaf (velvetleaf; [1]): 0
- Plant response rating, Velvetleaf (velvetleaf; [2]): 0
- Velvetleaf plant response rating (0 to 10 scale) (velvetleaf; Preemergence, Rate 125 g/ha): 0
- Velvetleaf plant response rating (velvetleaf; Preemergence, Rate 250 g/ha): 0
- Velvetleaf plant response rating (velvetleaf; Preemergence, Rate 500 g/ha): 2
- Velvetleaf plant response rating (velvetleaf; Rate 62 g/ha, Postemergence): 0
- Plant response rating, Velvetleaf (velvetleaf; [3]): 2
- Plant response rating, Bedstraw (bedstraw; [1]): 0
- Plant response rating, Bedstraw (bedstraw; [2]): 0
- Bedstraw plant response rating (0 to 10 scale) (bedstraw; Preemergence, Rate 125 g/ha): 0
- Bedstraw plant response rating (bedstraw; [8]): 2
- Bedstraw plant response rating (bedstraw; [9]): 0
- Plant response rating, Bedstraw (bedstraw; [10]): 4
- Plant response rating, Bedstraw (bedstraw; [3]): 8
- Plant response rating, Cocklebur (cocklebur; [1]): 0
- Plant response rating, Cocklebur (cocklebur; [2]): 0
- Cocklebur plant response rating (0 to 10 scale) (cocklebur; Preemergence, Rate 125 g/ha): 0
- Cocklebur plant response rating (cocklebur; Preemergence, Rate 250 g/ha): 0
- Cocklebur plant response rating (cocklebur; Preemergence, Rate 500 g/ha): 0
- Cocklebur plant response rating (cocklebur; Rate 62 g/ha, Postemergence): 0
- Plant response rating, Wheat (wheat; [1]): 0
- Plant response rating, Wheat (wheat; [2]): 0
- Wheat plant response rating (0 to 10 scale) (wheat; Preemergence, Rate 125 g/ha): 0
- Wheat plant response rating (wheat; Preemergence, Rate 250 g/ha): 0
- Wheat plant response rating (wheat; Preemergence, Rate 500 g/ha): 0
- Wheat plant response rating (wheat; Rate 62 g/ha, Postemergence): 0
- Plant response rating, Wheat (wheat; [3]): 0
